Legend:
[1] = LNP size and polydispersity index by Malvern Zetasizer dynamic light scattering (CA HA modFlu mRNA LNPs); type: physicochemical; conditions: DLS; for Size (nm): LNP of the ionizable lipid:cholesterol:DSPC:ALC-0159 about 46.3:42.7:9.4:1.6, N:P about 6:1, CA HA modFlu mRNA; for PDI: LNP with CA HA modFlu mRNA
In short: (§1)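 LNPs of ionizable lipid:cholesterol:DSPC:ALC-0159 (molar ratio about 46.3:42.7:9.4:1.6) formed by syringe-pump mixing of ethanolic lipids with mRNA at N:P about 6:1, then dialysed into buffer (e.g., Tris) and filtered. Size and PDI measured by DLS; total RNA and encapsulation efficiency by RiboGreen.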

[2] = Encapsulation efficiency, RiboGreen RNA quantitation assay (CA HA modFlu mRNA LNPs); type: physicochemical; conditions: LNP with CA HA modFlu mRNA
In short: as §1

HEK293F cells = assay: In vitro expression of novel ionizable lipid nanoparticles, high content imaging (CA HA modFlu mRNA); type: cell-based; conditions: LNP with CA HA modFlu mRNA
In short: (§2)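 Lipid nanoparticles of ionizable lipid, cholesterol, DSPC and ALC-0159 (about 46.3:42.7:9.4:1.6 molar), N:P about 6:1, carrying mRNA, dosed onto cells overnight at 37° C., 5% CO2. Cells fixed and stained with Hoechst plus antibody to encoded protein; nuclei and antigen-positive cells counted by high-content imaging.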

Hela cells = assay: as above; type: cell-based; conditions: LNP with CA HA modFlu mRNA
In short: as §2

Structure (SMILES) | Size (nm) [1] | PDI [1] | EE % [2] | EC50 Hek293F (ng/well) (HEK293F cells) | EC50 Hela (ng/well) (Hela cells)
CCCCCCCC(CCCCCCC)CCC(=O)OCC(COC(=O)CCC(CCCCCCC)CCCCCCC)N1CCC2(CCN(CCCCO)CC2)CC1 [Example 40, 2-(9-(4-hydroxybutyl)-3,9-diazaspiro[5.5]undecan-3-yl)propane-1,3-diyl bis(4-heptylundecanoate)] | 117 nm | 0.080 | 100% | 5.6 ng/well | 3.6 ng/well
CCCCCCCC(CCCCCCC)C(=O)OCC(COC(=O)C(CCCCCCC)CCCCCCC)N1CCC2(CCN(CCCCCO)C2)C1 (stereo not drawn) [Example 41, 2-(7-(5-hydroxypentyl)-2,7-diazaspiro [4.4]nonan-2-yl)propane-1,3-diyl bis(2-heptylnonanoate)] | 119 nm | 0.060 | 99% | 0.20 ng/well | 0.30 ng/well
CCCCCCCCCC(=O)OCC(COC(=O)C(CCCCCC)CCCCCCCC)N1CCC2(CCN(CCCCO)CC2)CC1 (stereo not drawn) [Example 42, 3-(decanoyloxy)-2-(9-(4-hydroxybutyl)-3,9-diazaspiro[5.5]undecan-3-yl)propyl 2-hexyldecanoate] | 100 nm | 0.080 | 99% | 42.7 ng/well | >50 ng/well
CCCCCC/C=C\CCCC(=O)OCC(COC(=O)C(CCCCCC)CCCCCCCC)N1CCC2(CCN(CCCCO)CC2)CC1 (stereo not drawn) [Example 43, 3-((2-hexyldecanoyl)oxy)-2-(9-(4-hydroxybutyl)-3,9-diazaspiro[5.5]undecan-3-yl)propyl (Z)-dodec-5-enoate] | 89 nm | 0.111 | 99% | 33.3 ng/well | 14.2 ng/well
CCCCCCCCC(CCCCCC)C(=O)OCC(COC(=O)C(CCCCCCCC)CC1CCC1)N1CCC2(CCN(CCCCO)CC2)CC1 (stereo not drawn) [Example 44, 3-((2-(cyclobutylmethyl)decanoyl)oxy)-2-(9-(4-hydroxybutyl)-3,9-diazaspiro[5.5]undecan-3-yl)propyl 2-hexyldecanoate] | 119 nm | 0.080 | 99% | 0.28 ng/well | 0.30 ng/well
CCCCCCCCCC(CCCC)C(=O)OCC(COC(=O)C(CCCCCC)CCCCCCCC)N1CCC2(CCN(CCCCO)CC2)CC1 (stereo not drawn) [Example 45, 3-((2-hexyldecanoyl)oxy)-2-(9-(4-hydroxybutyl)-3,9-diazaspiro[5.5]undecan-3-yl)propyl 2-butylundecanoate] | 117 nm | 0.060 | 99% | 1.1 ng/well | 1.1 ng/well
CCCCCCCCCCCCCCCC(=O)OCC(COC(=O)CCC(CCCC)C(CCCC)CCCC)N1CCC2(CCN(CCCCO)CC2)CC1 (stereo not drawn) [Example 46, 3-((4,5-dibutylnonanoyl)oxy)-2-(9-(4-hydroxybutyl)-3,9-diazaspiro[5.5]undecan-3-yl)propyl palmitate] | 92 nm | 0.090 | 99% | 24.6 ng/well | 1.7 ng/well
CCCCCCCC(CCCCCCC)C(=O)OCCC(CCOC(=O)C(CCCCCCC)CCCCCCC)N1CCC2(CCN(CCCCO)CC2)CC1 [Example 47, 3-(9-(4-hydroxybutyl)-3,9-diazaspiro[5.5]undecan-3-yl)pentane-1,5-diyl bis(2-heptylnonanoate)] | 147 nm | 0.080 | 99% | 5.9 ng/well | 4.6 ng/well
CCCCCCCC(CCCCCCC)C(=O)OCC(COC(=O)C(CCCCCCC)CCCCCCC)N1CCC2(CCN(CCCCCO)C2)CC1 [Example 48, 2-(2-(5-hydroxypentyl)-2,8-diazaspiro[4.5]decan-8-yl)propane-1,3-diyl bis(2-heptylnonanoate)] | 127 nm | 0.093 | 100% | 0.76 ng/well | 1.0 ng/well
